Laboratory results: article PMC8771711, “Synthesis of Lasalocid-Based Bioconjugates and Evaluation of Their Anticancer Activity” (ACS Omega, 2022)

How the values were obtained:
[1] = system: SW480, human primary colon cancer cell line; experiment: MTT assay, cytotoxicity in SW480; assay type: cell-based; conditions: for IC50: Homo sapiens, SW480, MTT, 72 h, mean ± SD; for SW480 SI (selectivity index): SI = IC50 HaCaT / IC50 SW480
Protocol: (§1) The human cell lines SW480 (primary colon cancer), SW620 (lymph node metastatic colon cancer from the same patient as primary cancer cells), PC3 (metastatic prostate cancer), and HaCaT (immortalized keratinocytes) were obtained from the American Type Culture Collection (ATCC, Rockville, USA). The SW480 and SW620 cells were grown in MEM (ThermoSci, USA), PC3 in RPMI 1640, and HaCaT in DMEM High Glucose (Biowest SAS, France) supplemented with 10% foetal bovine serum (FBS), HEPES (20 mM), and antibiotics (100 U mL^–1 of penicillin and 100 μg mL^–1 of streptomycin). The cells were incubated in a humidified incubator at 37 °C/5% CO2, until 80–90% confluence was reached.
(§2) The cell viability was assessed by using of MTT salt [3-(4,5-dimethylthiazol-2-yl)-2,5-diphenyltetrazolium bromide] converted by mitochondrial dehydrogenase, occurring in living cells. The cells were seeded in 96-well plates at a density of 1 × 10^4 cells per well and allowed to adhere for 24 h at 37 °C in a CO2 humidified incubator. Then, the medium was removed and a fresh medium with various concentrations of tested compounds (from 10 to 120 μM) was added. The untreated cells were used as the control.
(§3) After 72 h incubation, the medium was replaced with 200 μL per well of free serum medium containing 0.5 mg mL^–1 MTT and incubated for 4 h at 37 °C in a CO2 humidified incubator. Subsequently, the medium was removed and dimethyl sulfoxide with isopropanol (1:1) was added to dissolve the formazan crystals. The optical density was measured using a UVM 340 reader (ASYS Hitech GmbH, Austria) at a wavelength of 570 nm. The experiments were repeated three times. The cell viability was calculated as the percent of MTT reduced in treated cells versus control cells (untreated cells). The number of viable cells cultured without tested compounds was assumed as 100%. The decreased relative MTT level indicates decreased cell viability. The IC50 values were estimated using CompuSyn version 1.0.

[2] = system: SW620, human metastatic colon cancer cell line; experiment: MTT assay, cytotoxicity in SW620; assay type: cell-based; conditions: for IC50: Homo sapiens, SW-620, MTT, 72 h, mean ± SD; for SW620 SI (selectivity index): SI = IC50 HaCaT / IC50 SW620
Protocol: as §1, §2, §3

[3] = system: PC3, human prostate cancer cell line; experiment: MTT assay, cytotoxicity in PC3; assay type: cell-based; conditions: for IC50: Homo sapiens, MTT, 72 h, mean ± SD; for PC3 SI (selectivity index): SI = IC50 HaCaT / IC50 PC3
Protocol: as §1, §2, §3

[4] = system: HaCaT, human immortalized keratinocyte cell line; experiment: MTT assay, cytotoxicity in HaCaT; assay type: cell-based; conditions: Homo sapiens, HaCaT, 72 h, mean ± SD, nontumor cells
Protocol: as §1, §2, §3

[5] = system: three cancer cell lines (SW480, SW620, PC3); experiment: MTT assay, span over the three cancer cell lines; assay type: cell-based, human; conditions: for IC50: Homo sapiens, MTT, 72 h; for SI, span over three cancer cell lines: SI = IC50 HaCaT / IC50 cancer cell line
Protocol: as §1, §2, §3

HaCaT cells = experiment: Annexin V-FITC/PI binding assay (flow cytometry) in HaCaT; assay type: cell-based, human; conditions: IC50 concentration, 72 h; span stated for compounds 12 and 13 together
Protocol: (§4) The SW480, SW620, PC3, and HaCaT cells were cultured and harvested under the conditions mentioned in the Section 4.5 and seeded in 12-well plates (1 × 10^5 cells per well). […] The apoptotic effect was performed using the Annexin V-FITC/propidium iodide (PI) apoptosis assay kit (Becton Dickinson, Pharmingen), according to the manufacturer’s instructions, and analyzed by flow cytometry (Becton Dickinson). The cells which were Annexin V-FITC-positive and PI-negative were identified as early apoptotic and both Annexin V-FITC- and PI-positive as late apoptotic or necrotic. The experiment was repeated three times.

SW480 cells = experiment: Annexin V-FITC/PI binding assay (flow cytometry) in SW480; assay type: cell-based, human; conditions: IC50 concentration, 72 h
Protocol: as §4

PC3 cells = experiment: Annexin V-FITC/PI binding assay (flow cytometry) in PC3; assay type: cell-based, human; conditions: IC50 concentration, 72 h
Protocol: as §4

[6] = system: ROS production in PC3, SW480, SW620 cells; experiment: ROS detection, DCFH-DA and DHR-123 assay, cancer cell lines; assay type: cell-based, human; conditions: IC50 concentration; DCF and rhodamine fluorescence intensity
Protocol: (§5) ROS generation was assessed by the spectrofluorometric method using the 2′,7′-dichlorodihydrofluorescein diacetate (DCFH-DA) or dihydrorhodamine 123 (DHR-123). The method is based on the ROS-dependent oxidation of the compounds to fluorescent dichlorofluorescein (DCF) or rhodamine-123, respectively.[61] PC3, SW480, SW620, and HaCaT were seeded on to 96-well plates (5 × 10^4 cells per well) and allowed to adhere for 24 h. Then, cells were rinsed with PBS and incubated with DCFH-DA (5 μM) or DHR-123 (1 μM) for 30 min at 37 °C in the dark. […] A sample with H2O2 (1.5 mM) was a positive control, and a sample without any reagent was a negative control. Maximum excitation and emission spectra for DCF were 492 and 527 nm, and those for rhodamine-123 were 500 and 536 nm, respectively. The generation of H2O2 was measured by Microplate Spectrofluorometer BioTek Synergy (BioTek Instruments, USA) and expressed as fluorescence intensity (FI). Values from three experiments performed in triplicate were analyzed.

[7] = system: ROS production in HaCaT cells; experiment: ROS detection, DCFH-DA and DHR-123 assay, HaCaT; assay type: cell-based, human; conditions: IC50 concentration; for ROS level in HaCaT cells (in words): DCF and rhodamine fluorescence intensity; for time of treatment at which the amount of ROS in HaCaT cells was highest: measured after 1, 4, 12, 24 h
Protocol: as §5

SW620 cells = experiment: Annexin V-FITC/PI binding assay (flow cytometry) in SW620; assay type: cell-based, human; conditions: IC50 concentration, 72 h
Protocol: as §4

IL-6 in SW480 cells = experiment: Interleukin-6 assay (ELISA) in SW480; assay type: cell-based, human; conditions: IC50 concentration, 72 h, ELISA of culture supernatant
Protocol: (§6) The level of interleukin-6 (IL-6) in SW480, SW620, and PC3 cell lines was measured by commercial human IL-6 ELISA kits Diaclon SAS (Besancon Cedex, France). […] The untreated cells were used as the control. The IL-6 level in a cell culture supernatant was measured using an enzyme-linked immunosorbent assay, in accordance with the manufacturer’s instruction. The experiment was repeated three times.

IL-6 in SW620 cells = experiment: Interleukin-6 assay (ELISA) in SW620; assay type: cell-based, human; conditions: IC50 concentration, 72 h, ELISA of culture supernatant
Protocol: as §6

IL-6 in PC3 cells = experiment: Interleukin-6 assay (ELISA) in PC3; assay type: cell-based, human; conditions: IC50 concentration, 72 h, ELISA of culture supernatant, p ≤ 0.001
Protocol: as §6

Structure (SMILES): CC[C@@H](C(=O)[C@@H](C)[C@@H](O)[C@H](C)CCc1ccc(C)c(O)c1C(=O)O)[C@H]1O[C@](CC)([C@H]2CC[C@](O)(CC)[C@H](C)O2)C[C@@H]1C [LAS, lasalocid]
- IC50 [1]: 7.2 ± 0.79 µM
- SW480 SI (selectivity index) [1]: 2.2
- IC50 [2]: 6.1 ± 0.28 µM
- SW620 SI (selectivity index) [2]: 2.6
- IC50 [3]: 1.4 ± 0.05 µM
- PC3 SI (selectivity index) [3]: 11
- IC50 [4]: 16 ± 1.9 µM
- IC50 [5]: 1.4 to 7.2 µM
- SI, span over three cancer cell lines [5]: 2.2–11

Structure (SMILES): CC[C@@H](C(=O)[C@@H](C)[C@@H](O)[C@H](C)CCc1ccc(C)c(O)c1C(=O)OCCC[P+](c1ccccc1)(c1ccccc1)c1ccccc1)[C@H]1O[C@](CC)([C@H]2CC[C@](O)(CC)[C@H](C)O2)C[C@@H]1C [Compound 13, LAS–TPP Conjugate]
- IC50 [1]: 1.4 ± 1.5 µM
- SW480 SI (selectivity index) [1]: 2.3
- IC50 [2]: 2.3 ± 2.2 µM
- SW620 SI (selectivity index) [2]: 1.4
- IC50 [3]: 1.8 ± 0.09 µM
- PC3 SI (selectivity index) [3]: 1.8
- IC50 [4]: 3.2 ± 0.12 µM
- late apoptosis in HaCaT cells (HaCaT cells): 57.26 to 72.01%
- percentage of late apoptotic SW480 cells (SW480 cells): 20.15%
- percentage of necrotic SW480 cells (SW480 cells): 24.82%
- percentage of necrotic PC3 cells (PC3 cells): 56.81%
- ROS level in cancer cell lines (in words) [6]: significantly higher level of ROS
- ROS level in HaCaT cells (in words) [7]: significantly higher level of ROS
- time of treatment at which the amount of ROS in HaCaT cells was highest [7]: 12 h

Structure (SMILES): CC[C@@H](C(=O)[C@@H](C)[C@@H](O)[C@H](C)CCc1ccc(C)c(O)c1C(=O)OC[C@H]1O[C@@H](n2ccc(N)nc2=O)C(F)(F)[C@@H]1O)[C@H]1O[C@](CC)([C@H]2CC[C@](O)(CC)[C@H](C)O2)C[C@@H]1C [Compound 12, LAS–Gemcitabine Conjugate]
- IC50 [1]: 12 ± 0.86 µM
- SW480 SI (selectivity index) [1]: 1.2
- IC50 [2]: 3.6 ± 1.1 µM
- SW620 SI (selectivity index) [2]: 3.9
- IC50 [3]: 1.6 ± 1.2 µM
- PC3 SI (selectivity index) [3]: 8.8
- IC50 [4]: 14 ± 0.22 µM
- late apoptosis in HaCaT cells (HaCaT cells): 57.26 to 72.01%
- percentage of necrotic SW480 cells (SW480 cells): 42.85%
- early apoptosis in SW620 cells (SW620 cells): 14.53%
- late apoptosis in SW620 cells (SW620 cells): 14.79%
- percentage of late apoptotic PC3 cells (PC3 cells): 39.92%
- percentage of necrotic PC3 cells (PC3 cells): 40.31%
- decrease of IL-6 concentration in SW480 cells compared to the control (IL-6 in SW480 cells): ~1.0 time
- decrease of IL-6 concentration in SW620 cells compared to the control (IL-6 in SW620 cells): ~1.3 time
- ROS level in cancer cell lines (in words) [6]: significantly higher level of ROS
- ROS level in HaCaT cells (in words) [7]: slightly elevated level of ROS
- time of treatment at which the amount of ROS in HaCaT cells was highest [7]: 4 h

Structure (SMILES): CC[C@@H](C(=O)[C@@H](C)[C@@H](O)[C@H](C)CCc1ccc(C)c(O)c1C(=O)OCc1cc(=O)c(O)co1)[C@H]1O[C@](CC)([C@H]2CC[C@](O)(CC)[C@H](C)O2)C[C@@H]1C [Compound 7, LAS–Kojic Acid Conjugate]
- IC50 [1]: 7.8 ± 0.09 µM
- SW480 SI (selectivity index) [1]: 0.8
- IC50 [2]: 9.9 ± 0.08 µM
- SW620 SI (selectivity index) [2]: 0.6
- IC50 [3]: 3.8 ± 0.07 µM
- PC3 SI (selectivity index) [3]: 1.7
- IC50 [4]: 6.3 ± 0.1 µM
- percentage of necrotic SW480 cells (SW480 cells): 22.39%
- percentage of late apoptotic PC3 cells (PC3 cells): 28.24%
- percentage of necrotic PC3 cells (PC3 cells): 26.00%
- inhibition of IL-6 release in PC3 cells, fold more effectively compared to control (IL-6 in PC3 cells): ~1.2 fold

Structure (SMILES): CC[C@@H](C(=O)[C@@H](C)[C@@H](O)[C@H](C)CCc1ccc(C)c(O)c1C(=O)OCCCCn1cc(F)c(=O)[nH]c1=O)[C@H]1O[C@](CC)([C@H]2CC[C@](O)(CC)[C@H](C)O2)C[C@@H]1C [Compound 8, LAS–5-Fluorouracil Conjugate]
- IC50 [1]: 67 ± 1.2 µM
- SW480 SI (selectivity index) [1]: 0.5
- IC50 [2]: 14 ± 1 µM
- SW620 SI (selectivity index) [2]: 2.4
- IC50 [3]: 3.6 ± 0.08 µM
- PC3 SI (selectivity index) [3]: 9.2
- IC50 [4]: 33 ± 3.4 µM
- percentage of late apoptotic PC3 cells (PC3 cells): 33.16%
- percentage of necrotic PC3 cells (PC3 cells): 34.88%

Structure (SMILES): Nc1ccn([C@@H]2O[C@H](CO)[C@@H](O)C2(F)F)c(=O)n1 [GEM, gemcitabine, reference compound]
- IC50 [1]: 1.2 ± 0.05 µM
- SW480 SI (selectivity index) [1]: 1.3
- IC50 [2]: 3.4 ± 0.65 µM
- SW620 SI (selectivity index) [2]: 0.4
- IC50 [3]: 0.14 ± 0.02 µM
- PC3 SI (selectivity index) [3]: 11
- IC50 [4]: 1.5 ± 0.05 µM
- IC50 [5]: 0.14 to 3.4 µM
- SI, span over three cancer cell lines [5]: 0.4–11
